From the supplement of paper PMC8741786
Values after ≈ are worked out from the molar mass of the structure shown.

Assays:
Neisseria mucosa/macacae = test: minimum inhibitory concentration (ETEST)
Description: (§1)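 Oropharyngeal Neisseria isolates from MSM and employees in Belgium were identified to species by MALDI-TOF MS. MICs of azithromycin, ceftriaxone and ciprofloxacin were determined by ETEST on GC agar after 24 h at 36.5 °C and 5-7% CO2, in mg/L. Values beyond the strip range are reported as >256 (azithromycin) or <0.016 (ceftriaxone); isolates that did not grow are NA.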

[1] = tested on: Neisseria subflava/flavescens/perflava; test: minimum inhibitory concentration (ETEST)
Description: as §1

CO/N=C(\C(=O)N[C@@H]1C(=O)N2C(C(=O)O)=C(CSc3nc(=O)c(O)nn3C)CS[C@H]12)c1csc(N)n1 [ceftriaxone]
Conditions	minimum inhibitory concentration [µg/mL]
Neisseria mucosa/macacae, isolate id (sample isolate): 19041762_2, population: MSM, antibiotic use in previous 6 months: Yes	0.032 (≈ 0.0577 µM)
Neisseria mucosa/macacae, isolate id (sample isolate): 19051904_1, population: MSM, antibiotic use in previous 6 months: Yes	0.047 (≈ 0.0847 µM)
Neisseria mucosa/macacae, isolate id (sample isolate): 19052394_2, population: MSM, antibiotic use in previous 6 months: Yes	0.032 (≈ 0.0577 µM)
Neisseria mucosa/macacae, isolate id (sample isolate): 19062968_1, population: MSM, antibiotic use in previous 6 months: Yes	0.064 (≈ 0.115 µM)
Neisseria mucosa/macacae, isolate id (sample isolate): 19081774_2, population: MSM, antibiotic use in previous 6 months: No	0.094 (≈ 0.169 µM)
Neisseria mucosa/macacae, isolate id (sample isolate): 19111422_4, population: MSM, antibiotic use in previous 6 months: No	0.032 (≈ 0.0577 µM)
Neisseria mucosa/macacae, isolate id (sample isolate): 19111422_7, population: MSM, antibiotic use in previous 6 months: No	0.032 (≈ 0.0577 µM)
Neisseria mucosa/macacae, isolate id (sample isolate): Co000770_5, population: general population, antibiotic use in previous 6 months: No	0.047 (≈ 0.0847 µM)
Neisseria mucosa/macacae, isolate id (sample isolate): Co000771_4, population: general population, antibiotic use in previous 6 months: No	0.064 (≈ 0.115 µM)
Neisseria mucosa/macacae, isolate id (sample isolate): Co000772_3, population: general population, antibiotic use in previous 6 months: No	0.032 (≈ 0.0577 µM)
Neisseria mucosa/macacae, isolate id (sample isolate): Co000773_3, population: general population, antibiotic use in previous 6 months: No	0.032 (≈ 0.0577 µM)
Neisseria mucosa/macacae, isolate id (sample isolate): Co000779_1, population: general population, antibiotic use in previous 6 months: No	0.125 (≈ 0.225 µM)
Neisseria mucosa/macacae, isolate id (sample isolate): Co000783_3, population: general population, antibiotic use in previous 6 months: No	0.032 (≈ 0.0577 µM)
Neisseria mucosa/macacae, isolate id (sample isolate): Co000783_6, population: general population, antibiotic use in previous 6 months: No	0.032 (≈ 0.0577 µM)
Neisseria mucosa/macacae, isolate id (sample isolate): Co000787_3, population: general population, antibiotic use in previous 6 months: No	0.094 (≈ 0.169 µM)
Neisseria mucosa/macacae, isolate id (sample isolate): Co000788_1, population: general population, antibiotic use in previous 6 months: No	0.032 (≈ 0.0577 µM)
Neisseria mucosa/macacae, isolate id (sample isolate): Co000788_4, population: general population, antibiotic use in previous 6 months: No	0.032 (≈ 0.0577 µM)
[1], isolate id (sample isolate): 19041762_1, population: MSM, antibiotic use in previous 6 months: Yes	0.016 (≈ 0.0289 µM)
[1], isolate id (sample isolate): 19041762_1.1, population: MSM, antibiotic use in previous 6 months: Yes	0.023 (≈ 0.0415 µM)
[1], isolate id (sample isolate): 19041780_1, population: MSM, antibiotic use in previous 6 months: Yes	0.064 (≈ 0.115 µM)
[1], isolate id (sample isolate): 19042150_1, population: MSM, antibiotic use in previous 6 months: Yes	0.5 (≈ 0.902 µM)
[1], isolate id (sample isolate): 19042150_3, population: MSM, antibiotic use in previous 6 months: Yes	0.047 (≈ 0.0847 µM)
[1], isolate id (sample isolate): 19042756_1, population: MSM, antibiotic use in previous 6 months: Yes	0.023 (≈ 0.0415 µM)
[1], isolate id (sample isolate): 19042756_2, population: MSM, antibiotic use in previous 6 months: Yes	0.023 (≈ 0.0415 µM)
[1], isolate id (sample isolate): 19043201_1.1, population: MSM, antibiotic use in previous 6 months: No	0.047 (≈ 0.0847 µM)
[1], isolate id (sample isolate): 19043201_2.1, population: MSM, antibiotic use in previous 6 months: No	1 (≈ 1.8 µM)
[1], isolate id (sample isolate): 19043201_3, population: MSM, antibiotic use in previous 6 months: No	0.064 (≈ 0.115 µM)
[1], isolate id (sample isolate): 19043274_3, population: MSM, antibiotic use in previous 6 months: Yes	0.064 (≈ 0.115 µM)
[1], isolate id (sample isolate): 19050474_1, population: MSM, antibiotic use in previous 6 months: No	0.047 (≈ 0.0847 µM)
[1], isolate id (sample isolate): 19050514_1, population: MSM, antibiotic use in previous 6 months: Yes	0.047 (≈ 0.0847 µM)
[1], isolate id (sample isolate): 19050949_1, population: MSM, antibiotic use in previous 6 months: No	0.032 (≈ 0.0577 µM)
[1], isolate id (sample isolate): 19050949_2, population: MSM, antibiotic use in previous 6 months: No	0.023 (≈ 0.0415 µM)
[1], isolate id (sample isolate): 19050949_2.1, population: MSM, antibiotic use in previous 6 months: No	0.016 (≈ 0.0289 µM)
[1], isolate id (sample isolate): 19051904_2, population: MSM, antibiotic use in previous 6 months: Yes	0.064 (≈ 0.115 µM)
[1], isolate id (sample isolate): 19051904_3, population: MSM, antibiotic use in previous 6 months: Yes	0.064 (≈ 0.115 µM)
[1], isolate id (sample isolate): 19052394_1, population: MSM, antibiotic use in previous 6 months: Yes	0.032 (≈ 0.0577 µM)
[1], isolate id (sample isolate): 19052394_1.1, population: MSM, antibiotic use in previous 6 months: Yes	0.023 (≈ 0.0415 µM)
[1], isolate id (sample isolate): 19060089_1, population: MSM, antibiotic use in previous 6 months: Yes	0.047 (≈ 0.0847 µM)
[1], isolate id (sample isolate): 19062994_1, population: MSM, antibiotic use in previous 6 months: Yes	0.047 (≈ 0.0847 µM)
[1], isolate id (sample isolate): Co000761_2, population: general population, antibiotic use in previous 6 months: No	0.023 (≈ 0.0415 µM)
[1], isolate id (sample isolate): Co000761_3, population: general population, antibiotic use in previous 6 months: No	0.032 (≈ 0.0577 µM)
[1], isolate id (sample isolate): Co000761_5, population: general population, antibiotic use in previous 6 months: No	0.016 (≈ 0.0289 µM)
[1], isolate id (sample isolate): Co000761_6, population: general population, antibiotic use in previous 6 months: No	0.016 (≈ 0.0289 µM)
[1], isolate id (sample isolate): Co000762_3, population: general population, antibiotic use in previous 6 months: No	0.094 (≈ 0.169 µM)
[1], isolate id (sample isolate): Co000762_4, population: general population, antibiotic use in previous 6 months: No	0.094 (≈ 0.169 µM)
[1], isolate id (sample isolate): Co000763_2, population: general population, antibiotic use in previous 6 months: No	0.032 (≈ 0.0577 µM)
[1], isolate id (sample isolate): Co000764_1, population: general population, antibiotic use in previous 6 months: No	0.032 (≈ 0.0577 µM)
[1], isolate id (sample isolate): Co000764_2, population: general population, antibiotic use in previous 6 months: No	0.023 (≈ 0.0415 µM)
[1], isolate id (sample isolate): Co000765_2, population: general population, antibiotic use in previous 6 months: No	0.047 (≈ 0.0847 µM)
[1], isolate id (sample isolate): Co000765_3, population: general population, antibiotic use in previous 6 months: No	0.032 (≈ 0.0577 µM)
[1], isolate id (sample isolate): Co000765_4, population: general population, antibiotic use in previous 6 months: No	0.023 (≈ 0.0415 µM)
[1], isolate id (sample isolate): Co000766_1, population: general population, antibiotic use in previous 6 months: No	0.023 (≈ 0.0415 µM)
[1], isolate id (sample isolate): Co000766_3, population: general population, antibiotic use in previous 6 months: No	0.032 (≈ 0.0577 µM)
[1], isolate id (sample isolate): Co000767_1, population: general population, antibiotic use in previous 6 months: No	0.023 (≈ 0.0415 µM)
[1], isolate id (sample isolate): Co000767_2, population: general population, antibiotic use in previous 6 months: No	0.023 (≈ 0.0415 µM)
[1], isolate id (sample isolate): Co000767_4, population: general population, antibiotic use in previous 6 months: No	0.023 (≈ 0.0415 µM)
[1], isolate id (sample isolate): Co000767_5, population: general population, antibiotic use in previous 6 months: No	0.064 (≈ 0.115 µM)
[1], isolate id (sample isolate): Co000767_6, population: general population, antibiotic use in previous 6 months: No	0.023 (≈ 0.0415 µM)
[1], isolate id (sample isolate): Co000767_7, population: general population, antibiotic use in previous 6 months: No	0.047 (≈ 0.0847 µM)
[1], isolate id (sample isolate): Co000768_1, population: general population, antibiotic use in previous 6 months: No	0.023 (≈ 0.0415 µM)
[1], isolate id (sample isolate): Co000768_2, population: general population, antibiotic use in previous 6 months: No	0.023 (≈ 0.0415 µM)
[1], isolate id (sample isolate): Co000769_1, population: general population, antibiotic use in previous 6 months: No	0.047 (≈ 0.0847 µM)
[1], isolate id (sample isolate): Co000769_2, population: general population, antibiotic use in previous 6 months: No	0.023 (≈ 0.0415 µM)
[1], isolate id (sample isolate): Co000769_4, population: general population, antibiotic use in previous 6 months: No	0.064 (≈ 0.115 µM)
[1], isolate id (sample isolate): Co000770_2, population: general population, antibiotic use in previous 6 months: No	0.032 (≈ 0.0577 µM)
[1], isolate id (sample isolate): Co000770_4, population: general population, antibiotic use in previous 6 months: No	0.032 (≈ 0.0577 µM)
[1], isolate id (sample isolate): Co000770_6, population: general population, antibiotic use in previous 6 months: No	0.032 (≈ 0.0577 µM)
[1], isolate id (sample isolate): Co000771_2, population: general population, antibiotic use in previous 6 months: No	0.064 (≈ 0.115 µM)
[1], isolate id (sample isolate): Co000771_3, population: general population, antibiotic use in previous 6 months: No	0.016 (≈ 0.0289 µM)
[1], isolate id (sample isolate): Co000771_5, population: general population, antibiotic use in previous 6 months: No	0.064 (≈ 0.115 µM)
[1], isolate id (sample isolate): Co000772_1, population: general population, antibiotic use in previous 6 months: No	0.064 (≈ 0.115 µM)
[1], isolate id (sample isolate): Co000772_2, population: general population, antibiotic use in previous 6 months: No	0.064 (≈ 0.115 µM)
[1], isolate id (sample isolate): Co000772_4, population: general population, antibiotic use in previous 6 months: No	0.023 (≈ 0.0415 µM)
[1], isolate id (sample isolate): Co000772_5, population: general population, antibiotic use in previous 6 months: No	0.023 (≈ 0.0415 µM)
[1], isolate id (sample isolate): Co000772_6, population: general population, antibiotic use in previous 6 months: No	0.016 (≈ 0.0289 µM)
